System: SARS-CoV-2
Assay: microbe, parasite or virus in culture
Conditions: Severe acute respiratory syndrome coronavirus 2, Vero C1008, 48 h

## CNCCC(Oc1ccccc1OC)c1ccccc1 (configuration not stated) [NISOXETINE]
  IC50: > 20 µM
read-out: pIC50 (converted)
  IC50: > 20 µM

## CCCCCCN1CCN(/C(=N/CC(C)C)c2ccccc2)CC1
  IC50: > 20 µM
read-out: pIC50 (converted)
  IC50: > 20 µM

## CN(C)CCCOc1nn(Cc2ccccc2)c2ccccc12 [BENZYDAMINE]
  IC50: > 20 µM
read-out: pIC50 (converted)
  IC50: > 20 µM

## [2H]C1([2H])[C@H]2C[C@@H]([C@@H]1Oc1ccc(C(F)(F)F)cn1)N(C(=O)c1cccc(F)c1-c1ncccn1)C2([2H])[2H]
  IC50: > 20 µM
read-out: pIC50 (converted)
  IC50: > 20 µM

## CCc1nn(CCO)c(CC)c1Oc1cc(C#N)cc(C#N)c1 [LERSIVIRINE]
  IC50: > 20 µM
read-out: pIC50 (converted)
  IC50: > 20 µM

## CCOC(=O)Nc1ccc2c(c1)N(C(=O)CN(C)C)c1ccccc1CC2 [TIRACIZINE]
  IC50: > 20 µM
read-out: pIC50 (converted)
  IC50: > 20 µM

## COc1nccnc1NS(=O)(=O)c1ccc(N)cc1
  IC50: > 20 µM
read-out: pIC50 (converted)
  IC50: > 20 µM

## OC(Cn1cncn1)(Cn1cncn1)c1ccc(F)cc1F [FLUCONAZOLE]
  IC50: > 20 µM
read-out: pIC50 (converted)
  IC50: > 20 µM

## C[C@@H]1C[C@H]2[C@@H]3CCC4=CC(=O)C=C[C@]4(C)[C@@]3(F)[C@@H](O)C[C@]2(C)[C@H]1C(=O)CO [DESOXIMETASONE]
  IC50: > 20 µM
read-out: pIC50 (converted)
  IC50: > 20 µM

## CC[C@]1(O)C[C@@H]2CN(CCc3c([nH]c4ccccc34)[C@@](C(=O)OC)(c3cc4c(cc3OC)N(C)[C@H]3[C@@](O)(C(N)=O)[C@H](O)[C@]5(CC)C=CCN6CC[C@]43[C@@H]65)C2)C1 [VINDESINE]
  IC50: > 20 µM
read-out: pIC50 (converted)
  IC50: > 20 µM

## COc1cc2/c(=N/c3ccc(Br)cc3F)nc[nH]c2cc1OCC1CCN(C)CC1 [VANDETANIB]
  IC50: > 20 µM
read-out: pIC50 (converted)
  IC50: > 20 µM

## Cc1ncc(CO)c(CO)c1O [PYRIDOXINE]
  IC50: > 20 µM
read-out: pIC50 (converted)
  IC50: > 20 µM

## CCCOc1ccc2[nH]c(NC(=O)OC)nc2c1 [OXIBENDAZOLE]
  IC50: > 20 µM
read-out: pIC50 (converted)
  IC50: > 20 µM

## CC(C(O)c1ccccc1)N(C)C (racemic)
  IC50: > 20 µM
read-out: pIC50 (converted)
  IC50: > 20 µM

## CCOc1ccc(Cc2cc([C@]34OC[C@](CO)(O3)[C@@H](O)[C@H](O)[C@H]4O)ccc2Cl)cc1 [ERTUGLIFLOZIN]
  IC50: > 20 µM
read-out: pIC50 (converted)
  IC50: > 20 µM

## Oc1cc2c(cc1O)[C@@H]1c3ccc(O)c(O)c3OC[C@]1(O)C2 [HEMATOXYLIN]
  IC50: > 20 µM
read-out: pIC50 (converted)
  IC50: > 20 µM

## O=S1(=O)c2cccc3cccc(c23)N1CCCN1CCN(c2ccc(F)cc2)CC1 [FANANSERIN]
  IC50: > 20 µM
read-out: pIC50 (converted)
  IC50: > 20 µM

## CCOC(=O)c1ccccc1OC(=O)CCCCCCCC(=O)Oc1ccccc1C(=O)OCC
  IC50: > 20 µM
read-out: pIC50 (converted)
  IC50: > 20 µM

## CCN(CCCCOC(=O)c1ccc(OC)c(OC)c1)C(C)Cc1ccc(OC)cc1 (configuration not stated) [MEBEVERINE]
  IC50: > 20 µM
read-out: pIC50 (converted)
  IC50: > 20 µM

## Nc1ccccc1NC(=O)c1ccc(CNC(=O)OCc2cccnc2)cc1 [ENTINOSTAT]
  IC50: > 20 µM
read-out: pIC50 (converted)
  IC50: > 20 µM

## C=C[C@]12CN(C)[C@@H]3[C@H]4CO[C@H](C[C@H]41)[C@]1(C(=O)Nc4ccccc41)[C@@H]32 [GELSEMINE]
  IC50: > 20 µM
read-out: pIC50 (converted)
  IC50: > 20 µM

## N[C@H](Cn1ccc(=O)c(O)c1)C(=O)O
  IC50: > 20 µM
read-out: pIC50 (converted)
  IC50: > 20 µM

## CCC(=O)O[C@@H]1CC(=O)O[C@H](C)C/C=C\C=C/[C@@H](O)[C@H](C)C[C@H](CC=O)[C@H](O[C@H]2O[C@H](C)[C@@H](O[C@H]3C[C@@](C)(O)[C@@H](OC(=O)CC)[C@H](C)O3)[C@H](N(C)C)[C@H]2O)[C@H]1OC
  IC50: > 20 µM
read-out: pIC50 (converted)
  IC50: > 20 µM

## CC(CN1CCOCC1)C(C(=O)N1CCCC1)(c1ccccc1)c1ccccc1 (racemic) [RACEMORAMIDE]
  IC50: > 20 µM
read-out: pIC50 (converted)
  IC50: > 20 µM

## O=c1[nH]c(=O)n([C@H]2C[C@H](O)[C@@H](CO)O2)cc1Br [BROXURIDINE]
  IC50: > 50.1 µM
read-out: pIC50 (converted)
  IC50: > 50.1 µM

## CC(C)(C)C(=O)NCCCC(=O)O [PIVAGABINE]
  IC50: > 20 µM
read-out: pIC50 (converted)
  IC50: > 20 µM

## O=C1CN=C(c2ccccc2)c2cc([N+](=O)[O-])ccc2N1 [NITRAZEPAM]
  IC50: > 20 µM
read-out: pIC50 (converted)
  IC50: > 20 µM

## Cc1cnc(C(=O)O)c[n+]1[O-] [ACIPIMOX]
  IC50: > 20 µM
read-out: pIC50 (converted)
  IC50: > 20 µM

## CC(C)(C)NCC(O)c1ccc(O)c(CS(C)(=O)=O)c1 (configuration not stated) [SULFONTEROL]
  IC50: > 20 µM
read-out: pIC50 (converted)
  IC50: > 20 µM

## C[C@@]12CCCCC[C@@H](Cc3ccc(O)cc31)[C@@H]2N [DEZOCINE]
  IC50: > 20 µM
read-out: pIC50 (converted)
  IC50: > 20 µM

## CCn1cc(C(=O)O)c(=O)c2ccc(-c3ccncc3)cc21 [ROSOXACIN]
  IC50: > 20 µM
read-out: pIC50 (converted)
  IC50: > 20 µM

## CC(C(=O)O)c1ccc2oc(-c3ccc(Cl)cc3)nc2c1 (configuration not stated) [BENOXAPROFEN]
  IC50: > 20 µM
read-out: pIC50 (converted)
  IC50: > 20 µM

## CC(C)Nc1cccnc1N1CCN(C(=O)c2cc3cc(NS(C)(=O)=O)ccc3[nH]2)CC1 [DELAVIRDINE]
  IC50: > 20 µM
read-out: pIC50 (converted)
  IC50: > 20 µM

## CCCCCCCCCCCC(=O)OCC(O)CO (configuration not stated) [GLYCEROL MONOLAURATE]
  IC50: > 20 µM
read-out: pIC50 (converted)
  IC50: > 20 µM

## CN(C)N=Nc1[nH]cnc1C(N)=O
  IC50: > 20 µM
read-out: pIC50 (converted)
  IC50: > 20 µM

## CC1N(CC(=O)c2ccccc2)CCCC1(C)c1cccc(O)c1 (configuration not stated) [MYFADOL]
  IC50: > 20 µM
read-out: pIC50 (converted)
  IC50: > 20 µM

Source: ChEMBL document CHEMBL4651402, “Screening of ~5500 FDA-approved drugs and clinical candidates for anti-SARS-CoV-2 activity” (2021)
